{"source": "patent US9707253B2", "about": "“High-loading, controlled-release magnesium oral dosage forms and methods for making and using same” (Pharmalyte Solutions, LLC, priority 2008, dated 2017)", "key": {"[1]": {"settings": "oral magnesium salts, background statement; cited from earlier work"}, "[2]": {"settings": "normal: minimum 33.9 mEq/IU; cited from earlier work"}, "[3]": {"settings": "healthy subjects, approximately 21 mEq, urinary excretion; cited from earlier work"}, "[4]": {"assay": "Absolute bioavailability study: serum magnesium pharmacokinetics", "settings": "fasted; for AUC0-72 / AUC0-t / Cmax: mean (SD); for Tmax: median (range)", "text": "(§1) A study has been conducted to investigate magnesium L-lactate dihydrate extended release caplets for management of magnesium-deficient patients who have experienced electrolyte imbalance due to iatrogenic or disease cause such as episodic migraine headaches. […] A study to compare the absolute bioavailability of an oral magnesium formulation compared to an IV administered magnesium sulfate including both serum and urine pharmacokinetic parameters has never been reported in the scientific literature.\n(§2) Three treatment regimens (Treatments A, B, and C) were employed in the study.\n(§3) Urine and blood samples were collected for pharmacokinetic (PK) analysis of urinary and serum magnesium concentrations. A total of 29 urine samples for each subject were collected continuously throughout the study for determination of fractional and daily urine magnesium concentrations, and 33 blood samples were collected from each subject for determination of serum magnesium concentrations at each time point during the study.\n(§4) The PK analysis population included 29 subjects for Treatment A, 29 subjects for Treatment B, and 31 subjects for Treatment C.\n(§5) The absolute bioavailability of magnesium was evaluated by comparing serum magnesium exposure (AUC0-72) or urinary magnesium excretion (Ae0-72) after oral versus IV administration."}, "[5]": {"assay": "Absolute bioavailability study: urinary magnesium pharmacokinetics", "settings": "baseline-adjusted, Treatment B: IV infusion 20 mEq over 4 hours, fasted", "text": "as §1, §2, §3, §4, §5"}, "[6]": {"settings": "baseline-adjusted, Treatment B: IV infusion 20 mEq over 4 hours"}, "[7]": {"settings": "observed, Treatment B: IV infusion 20 mEq over 4 hours"}}, "note": "Where “and” joins values, the source holds several entries; their conditions need not be identical. Identical values can stand only once.", "data": [{"molecule": "[Cl-].[Cl-].[Mg+2]", "note": "[magnesium chloride]", "values": [{"measurement": "bioavailability", "setting": "[1]", "value": "about 20%"}]}, {"molecule": "CC(O)C(=O)[O-].CC(O)C(=O)[O-].[Mg+2]", "note": "(stereo not drawn) [magnesium lactate, 2-hydroxypropanoic acid magnesium salt]", "values": [{"measurement": "effective in repleting intracellular magnesium levels to normal ranges", "setting": "[2]", "value": 100, "unit": "%"}]}, {"molecule": "[O]=[Mg]", "note": "[magnesium oxide]", "values": [{"measurement": "fractional absorption average", "setting": "[3]", "value": 4, "unit": "%"}, {"measurement": "bioavailability", "setting": "[1]", "value": "about 2%"}]}, {"molecule": "O=S(=O)([O-])[O-].[Mg+2]", "note": "[magnesium sulfate]", "values": [{"measurement": "AUC0-72", "setting": "[4]; [6]", "value": "76.2 (37.9) h · μg/mL"}, {"measurement": "AUC0-t", "setting": "[4]; [6]", "value": "72.8 (35.4) h · μg/mL"}, {"measurement": "Cmax", "setting": "[4]; [6]", "value": "6.79 (1.46) μg/mL"}, {"measurement": "Tmax", "setting": "[4]; [6]", "value": "4.00 (2.00-6.00) h"}, {"measurement": "AUC0-72", "setting": "[4]; [7]", "value": "1390 (121) h · μg/mL"}, {"measurement": "AUC0-t", "setting": "[4]; [7]", "value": "1390 (121) h · μg/mL"}, {"measurement": "Cmax", "setting": "[4]; [7]", "value": "25.7 (1.62) μg/mL"}, {"measurement": "Tmax", "setting": "[4]; observed, Treatment B: single IV infusion 20 mEq over 4 hours", "value": "4.00 (2.00-6.00) h"}, {"measurement": "CLR0-72", "setting": "[5]; median (range)", "value": "3.57 (1.44-35.6) L/h"}, {"measurement": "Ae0-72", "setting": "[5]; urine, mean (SD)", "value": "225 (49.5) mg"}, {"measurement": "Rmax", "setting": "[5]; urine, mean (SD)", "value": "20.5 (4.29) mg/h"}, {"measurement": "fe0-72", "setting": "[5]; urine, mean (SD)", "value": "92.7% and 92.7 (20.4) %"}, {"measurement": "Tmax,rate", "setting": "[5]; urine, median (range)", "value": "5.00 (3.00-9.00) h"}]}, {"molecule": "magnesium gluconate", "values": [{"measurement": "bioavailability", "setting": "[1]", "value": "about 20%"}]}]}
